Target: Clostridium perfringens CGH (Clostridium perfringens, UniProt P54965)
Format: binding
Details: 0-500 μM, 37° C., 24 h, in-gel fluorescence

Chain of Clostridium perfringens CGH (P54965 whole entry, looked up): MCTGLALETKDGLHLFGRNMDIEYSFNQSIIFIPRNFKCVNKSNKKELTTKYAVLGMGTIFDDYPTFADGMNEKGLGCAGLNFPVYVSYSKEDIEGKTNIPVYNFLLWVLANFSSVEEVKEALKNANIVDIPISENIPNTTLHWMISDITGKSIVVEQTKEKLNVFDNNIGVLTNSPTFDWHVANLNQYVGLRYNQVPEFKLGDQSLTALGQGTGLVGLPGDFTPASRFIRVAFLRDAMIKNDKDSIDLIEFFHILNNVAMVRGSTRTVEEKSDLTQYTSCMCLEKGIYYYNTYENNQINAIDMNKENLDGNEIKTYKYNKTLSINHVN

Row | SMILES | labeling of C. perfringens BSH
1 | Cc1cccc(C)c1C(=O)OCC(=O)CC[C@@H](C)[C@H]1CC[C@H]2[C@@H]3CC[C@@H]4C[C@H](N=[N+]=[N-])CC[C@]4(C)[C@H]3C[C@H](O)[C@]12C [DCA-AOMK, N3-DCA-AOMK] | label Clostridium perfringens bile salt hydrolase (BSH)
2 | Cc1cccc(C)c1C(=O)OCC(=O)CC[C@@H](C)[C@H]1CC[C@H]2[C@@H]3[C@H](O)C[C@@H]4C[C@H](N=[N+]=[N-])CC[C@]4(C)[C@H]3CC[C@]12C [CDCA-AOMK, N3-CDCA-AOMK] | label Clostridium perfringens bile salt hydrolase (BSH)

Source: US12215127B2 (priority 2020, dated 2025)
